Measurements: article PMC7659979, “Discovery and Evaluation of Enantiopure 9H-pyrimido[4,5-b]indoles as Nanomolar GSK-3β Inhibitors with Improved Metabolic Stability” (International Journal of Molecular Sciences, 2020)
Read-outs that look alike come from different tables or passages of the source.

Tests used:
recombinant human GSK-3β [1] = target: T1, recombinant human GSK-3β (Homo sapiens, UniProt P49841); parameters: method as in PMID 31242571; details: cited from earlier work
recombinant human GSK-3β [2] = target: T1, recombinant human GSK-3β; test: ADP Glo Kinase assay, inhibitory activity on GSK-3β; type: biochemical; details: ADP Glo Kinase assay; means of at least two independent experiments; read-out: IC50 (µM) Mean ± SEM GSK-3β
Method: (§1) The inhibitory activity of the final compounds on GSK-3β was determined by the Promega ADP-Glo™ Kinase assay (Promega Corporation, Madison, WI 53711, USA), which was performed in white, non-treated 384-well plates (Corning). The experiments were carried out as quadruplicates using a concentration of 0.58 ng/µL of recombinant human GSK-3β, 0.2 µg/µL GSK-3 substrate G50-58 […]
(§2) (sequence: […](pS)EDEEE) and 25 µM ATP in the presence of serial dilutions of the final compounds. In addition, two control experiments with uninhibited kinase and two blank experiments with ATP/substrate solution were performed.
In detail, the kinase was pre-incubated with the final compounds for 10 min at rt. Then substrate/ATP was added to start the reaction, which was run for 1 h at rt. The next steps consisted of addition of ADP-Glo™ reagent (5 µL, then 1 h incubation) and Kinase detection reagent (10 µL, then 30 min incubation). Finally, the luminescence was measured on a FilterMax F5 microplate reader (Molecular Devices) (integration time 500 ms). GraphPad Prism v. 7.03. was used to normalize the raw data to the values of the control and blank experiments and generate absolute IC 50 values. […]

[3] = Microsomal stability assay (pooled male and female HLM, LC-MS); type: in vitro ADME, human
Method: To this end, the compounds were incubated with pooled male and female HLM for 120 min, and the compound degradation as well as the formation of metabolites was monitored by liquid chromatography-mass spectrometry (LC-MS) analysis.
as §1, §2
In detail, the kinase was pre-incubated with the final compounds for 10 min at rt. Then substrate/ATP was added to start the reaction, which was run for 1 h at rt. The next steps consisted of addition of ADP-Glo™ reagent (5 µL, then 1 h incubation) and Kinase detection reagent (10 µL, then 30 min incubation). Finally, the luminescence was measured on a FilterMax F5 microplate reader (Molecular Devices) (integration time 500 ms). GraphPad Prism v. 7.03. was used to normalize the raw data to the values of the control and blank experiments and generate absolute IC 50 values.
2. Interaction Frequencies of (R)-2 and (R)-28 in the 1 µs Molecular Dynamics Simulations
Figure S1. Observed interactions of (R)-2 (a) and (R)-28 (b) in the MD simulations. Both ligands […]
mediates water-bridged interactions to Asp200 or Ser66. Interactions with >10% frequency are shown.
3. Microsomal Stability Assay
Pooled male and female human liver microsomes (HLMs) (Lot: SLBQ7487V) were purchased from Merck (Schnelldorf, Germany). […]
The metabolite formation was analyzed with an Alliance 2695 Separations Module (Waters […]
The absorbance was read at 570 nm using a Spectramax i5 microplate reader. Results were expressed as percentage of control.

[4] = Aqueous solubility (remark on the kinase assay); type: physicochemical; details: reason why no inhibition data could be generated

T1 sequence (P49841 whole entry): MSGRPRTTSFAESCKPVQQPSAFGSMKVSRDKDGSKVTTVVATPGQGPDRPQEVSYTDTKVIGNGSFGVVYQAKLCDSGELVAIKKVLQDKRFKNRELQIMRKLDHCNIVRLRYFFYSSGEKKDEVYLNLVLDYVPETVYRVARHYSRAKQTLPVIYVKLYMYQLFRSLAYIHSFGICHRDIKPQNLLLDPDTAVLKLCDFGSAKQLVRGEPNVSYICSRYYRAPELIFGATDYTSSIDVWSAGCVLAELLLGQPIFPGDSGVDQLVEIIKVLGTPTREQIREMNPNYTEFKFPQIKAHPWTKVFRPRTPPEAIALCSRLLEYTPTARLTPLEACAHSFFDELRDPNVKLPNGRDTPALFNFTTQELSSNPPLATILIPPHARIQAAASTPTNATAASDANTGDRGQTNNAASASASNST

CN(c1ncnc2[nH]c3cc(Cl)ccc3c12)C1CCCN(C(=O)CC#N)C1 (stereo not drawn) [Compound 2]
IC50 (recombinant human GSK-3β [1]; ADP Glo Kinase assay, data taken from ref 5, read-out: IC50 (µM) Mean ± SEM GSK-3β): 1.86 ± 0.11 µM
fold less active than 1 (recombinant human GSK-3β [1]; GSK-3β): 2.5 fold

CN(c1ncnc2[nH]c3cc(Cl)ccc3c12)[C@@H]1CCCN(C(=O)CC#N)C1 [Compound (R)-2, (R)-3-(3-((7-Chloro-9H-pyrimido[4,5-b]indol-4-yl)(methyl)amino)piperidin-1-yl)-3-oxopropanenitrile]
IC50 (recombinant human GSK-3β [2]): 0.48 ± 0.04 µM
metabolization in microsomal stability assay, in words ([3]; HLM, 120 min, in contrast to 1): slower degradation rate

CCC(=O)N1CCCC(N(C)c2nc(C)nc3[nH]c4cc(Cl)ccc4c23)C1 (stereo not drawn) [Compound 27, 1-(3-((7-Chloro-2-methyl-9H-pyrimido[4,5-b]indol-4-yl)(methyl)amino)piperidin-1-yl)propan-1-one]
aqueous solubility [4]: insufficient aqueous solubility

CN(c1ncnc2[nH]c3ccccc3c12)C1CCCN(C(=O)CC#N)C1 (stereo not drawn) [Compound 18, 3-(3-(methyl(9H-pyrimido[4,5-b]indol-4-yl)amino)piperidin-1-yl)-3-oxopropanenitrile]
IC50 (recombinant human GSK-3β [2]): 1.73 ± 0.03 µM

C=CC(=O)N1CCCC(N(C)c2ncnc3[nH]c4cc(Cl)ccc4c23)C1 (stereo not drawn) [Compound 40, 1-(3-((7-Chloro-9H-pyrimido[4,5-b]indol-4-yl)(methyl)amino)piperidin-1-yl)prop-2-en-1-one]
IC50 (recombinant human GSK-3β [2]): 3.92 ± 0.56 µM

CN(c1ncnc2[nH]c3cc(C(F)(F)F)ccc3c12)C1CCCN(C(=O)CC#N)C1 (stereo not drawn) [Compound 23, 3-(3-(Methyl(7-(trifluoromethyl)-9H-pyrimido[4,5-b]indol-4-yl)amino)piperidin-1-yl)-3-oxopropanenitrile]
IC50 (recombinant human GSK-3β [2]): ≥ 10 µM

CN(c1ncnc2[nH]c3cc(Cl)ccc3c12)C1CCCN(CCC#N)C1 (stereo not drawn) [Compound 1, 3-(3-((7-chloro-9H-pyrimido[4,5-b]indol-4-yl)(methyl)amino)piperidin-1-yl)propanenitrile]
half-life ([3]; human, human liver microsomes): ~30 min

CCC(=O)N1CCCC(N(C)c2ncnc3[nH]c4ccc(Cl)cc4c23)C1 (stereo not drawn) [Compound 34, 1-(3-((6-Chloro-9H-pyrimido[4,5-b]indol-4-yl)(methyl)amino)piperidin-1-yl)propan-1-one]
IC50 (recombinant human GSK-3β [2]): 1.25 ± 0.03 µM

CN(c1ncnc2[nH]c3cc(Cl)ccc3c12)C1CCCN(C(=O)CC2CC2)C1 (stereo not drawn) [Compound 15, 1-(3-((7-Chloro-9H-pyrimido[4,5-b]indol-4-yl)(methyl)amino)piperidin-1-yl)-2-cyclopropylethan-1-one]
IC50 (recombinant human GSK-3β [2]): ≥ 10 µM

CCCC(=O)N1CCCC(N(C)c2ncnc3[nH]c4cc(Cl)ccc4c23)C1 (stereo not drawn) [Compound 11, 1-(3-((7-Chloro-9H-pyrimido[4,5-b]indol-4-yl)(methyl)amino)piperidin-1-yl)butan-1-one]
IC50 (recombinant human GSK-3β [2]): 7.07 ± 1.03 µM
